Patent publication US20110112299A1, “TETRACYCLIC COMPOUND” (KYOWA HAKKO KIRIN CO., LTD., priority 2008, published 2011)

Legend:
[1] = target: T1, recombinant human glucocorticoid receptor (Homo sapiens, UniProt P04150); experiment: Human glucocorticoid receptor assay (fluorescence polarization, Test Example 1); assay type: binding
T1 construct: purchased Panvera/Invitrogen P2812 (kit P2893)
T1 sequence (P04150 1-777): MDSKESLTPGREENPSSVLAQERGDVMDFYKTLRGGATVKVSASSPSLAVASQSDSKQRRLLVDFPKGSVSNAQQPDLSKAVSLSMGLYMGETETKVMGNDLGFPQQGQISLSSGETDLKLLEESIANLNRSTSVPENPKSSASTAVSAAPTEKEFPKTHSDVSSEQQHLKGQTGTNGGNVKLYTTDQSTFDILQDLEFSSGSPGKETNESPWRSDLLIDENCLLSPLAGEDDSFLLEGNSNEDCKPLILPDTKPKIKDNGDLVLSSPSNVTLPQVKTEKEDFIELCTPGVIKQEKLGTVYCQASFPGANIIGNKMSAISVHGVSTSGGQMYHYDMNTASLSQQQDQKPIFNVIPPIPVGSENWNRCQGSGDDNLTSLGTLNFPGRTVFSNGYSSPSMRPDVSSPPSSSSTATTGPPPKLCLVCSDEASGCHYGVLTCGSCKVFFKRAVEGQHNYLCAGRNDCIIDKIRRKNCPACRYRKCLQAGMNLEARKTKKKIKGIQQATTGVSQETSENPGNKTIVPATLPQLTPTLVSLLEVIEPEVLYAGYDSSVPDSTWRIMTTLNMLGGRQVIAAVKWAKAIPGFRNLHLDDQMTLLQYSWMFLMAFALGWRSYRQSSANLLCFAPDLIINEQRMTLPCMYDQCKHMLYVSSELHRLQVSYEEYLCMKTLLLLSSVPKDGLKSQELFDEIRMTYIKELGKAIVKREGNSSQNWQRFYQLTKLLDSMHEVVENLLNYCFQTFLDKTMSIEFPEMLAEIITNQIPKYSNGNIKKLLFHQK
Description: In this assay, a fluorescence polarization assay kit (Panvera/Invitrogen, product number: P2893) was used. The recombinant human glucocorticoid receptor (product number: P2812), the Fluoromore (trademark)-labeled dexamethasone (GS Green, product number: P2813), the stabilizing peptide solution (product number: P2815), and the basic buffer solution (product number: P2814) which were used in the assay kit had been stored at −80° C. until used. A buffer solution for the assay was prepared by adding the basic buffer solution (10 fold dilution), the stabilizing peptide solution (10 fold dilution), and 1 mol/L DTT (1000 fold dilution to give a final concentration of 1 mmol/L).
The assay was performed as follows. […] The fluorescence polarization value of each well was measured using a plate reader (PerkinElmer, Fusion or Envision). […] To a positive control group, dexamethasone was added so as to give a final concentration of 1 μmol/L. The glucocorticoid receptor binding rate (%) was calculated by the following formula.
Glucocorticoid receptor binding rate (%)=100×[1-(fluorescence polarization value of test compound solution−fluorescence polarization value of positive control solution)/(fluorescence polarization value of negative control solution−fluorescence polarization value of positive control solution)]

[2] = system: IL-1β induced IL-6 production (A549 cells); experiment: Inhibition assay for IL-1β induced IL-6 production in A549 cells (Test Example 3); assay type: cell-based, human; settings: at a concentration of 100 nmol/L, IL-1β stimulation, relative to dexamethasone
Description: A549 cells cultured in F-12 medium supplemented with 10% bovine serum for 3 to 5 days were transferred to a 96-well plate (50000 cells/well) and then were cultured overnight. […] After the medium was removed by suction, 60 μL of F-12 medium was added to each well, and 20 μL of the test compound diluted to 5-fold of the desired concentration with F-12 medium or 20 μL of 4 μmol/L dexamethasone was added thereto. The test compound and the dexamethasone used here were prepared beforehand by dissolving in dimethyl sulfoxide (DMSO) and diluting with F-12 medium so that the final concentration of DMSO became 0.1% v/v or lower. After 30-minute incubation under 5% CO2 atmosphere at 37° C., 20 μL of 4 nmol/L IL-1β diluted with F-12 medium was added to each well, and then incubation was performed under a 5% CO2 atmosphere at 37° C. for 12 to 18 hours. The 96-well plate was centrifuged at 300×g at 4° C. for 5 minutes, and then the culture supernatant was collected for use as a sample for IL-6 measurement. The IL-6 produced in the culture supernatant was quantified by the ELISA method (R&D Systems, product number: DY206, DouSet ELISA Development System Human IL-6), and the production inhibition rate was calculated by the following formula. […]

CC/C(=C1\c2cc3cnn(C)c3cc2COc2ccccc21)c1cccc(NS(C)(=O)=O)c1 [Compound 2, (Z)-5-{1-[3-(methanesulfonamide)phenyl]propylidene}-1-methyl-5,11-dihydrobenzo[6,7]oxepino[4,3-f]indazole]
inhibitory activity (glucocorticoid receptor binding rate) ([1]; at a concentration of 100 nmol/L or higher): ≥ 80% | selectivity for human glucocorticoid receptor over progesterone receptor ([1]; from the results of Test Examples 1 and 2): selective inhibitory activity to human glucocorticoid receptors | IL-6 production inhibitory activity [2]: ≥ 80%
